Several values for one entry are separate records, joined by “and”; a condition that tells them apart may be missing. Identical values can stand only once. Inconclusive results and toxic doses are left out. Rule as the data show it: active = T/C of 150% or more; inactive = T/C below 125%.
System: L1210 leukemia ip in BDF1 mice, survival T/C
Assay: NCI In Vivo Anticancer Drug Screen. Data for tumor model L1210 Leukemia (intraperitoneal) in B6D2F1 (BDF1) mice
Conditions: endpoint: mean survival time, higher = longer survival
Procedure, shortened: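 Value reflects the ratio of survival in compound-treated mice to survival in vehicle-treated controls, with both groups carrying the same transplanted tumor.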

[1] = dose: 100.0 mg/kg/injection, schedule: Q01DX009 (ip), vehicle: Klucel (hydroxypropylcellulose) (HPC)
[2] = dose: 200.0 mg/kg/injection, schedule: Q01DX009 (ip), vehicle: Klucel (hydroxypropylcellulose) (HPC)
[3] = dose: 400.0 mg/kg/injection, schedule: Q01DX009 (ip), vehicle: Klucel (hydroxypropylcellulose) (HPC)
[4] = dose: 100.0 mg/kg/injection, schedule: Q01DX009 (ip), vehicle: gum acacia
[5] = dose: 100.0 mg/kg/injection, schedule: Q04DX003 (ip), vehicle: gum acacia
[6] = dose: 200.0 mg/kg/injection, schedule: Q01DX009 (ip), vehicle: gum acacia
[7] = dose: 200.0 mg/kg/injection, schedule: Q04DX003 (ip), vehicle: gum acacia
[8] = dose: 400.0 mg/kg/injection, schedule: Q01DX009 (ip), vehicle: gum acacia
[9] = dose: 400.0 mg/kg/injection, schedule: Q04DX003 (ip), vehicle: gum acacia
[10] = dose: 100.0 mg/kg/injection, schedule: Q01DX001 (ip), vehicle: carboxymethylcellulose (CMC)
[11] = dose: 100.0 mg/kg/injection, schedule: Q04DX003 (ip), vehicle: carboxymethylcellulose (CMC)
[12] = dose: 200.0 mg/kg/injection, schedule: Q01DX001 (ip), vehicle: carboxymethylcellulose (CMC)
[13] = dose: 200.0 mg/kg/injection, schedule: Q04DX003 (ip), vehicle: carboxymethylcellulose (CMC)
[14] = dose: 100.0 mg/kg/injection, schedule: Q04DX002 (ip), vehicle: Klucel (hydroxypropylcellulose) (HPC)
[15] = dose: 200.0 mg/kg/injection, schedule: Q04DX002 (ip), vehicle: Klucel (hydroxypropylcellulose) (HPC)
[16] = dose: 400.0 mg/kg/injection, schedule: Q04DX002 (ip), vehicle: Klucel (hydroxypropylcellulose) (HPC)

Measured: T/C

CN1CCCN(C(c2ccccc2)c2ccc(Cl)cc2)CC1 (centres undefined)
inactive: dose: 7.81 mg/kg/injection, schedule: Q01DX009 (ip), vehicle: saline 96 % of control | dose: 15.62 mg/kg/injection, schedule: Q01DX009 (ip), vehicle: saline 105 % of control | dose: 31.25 mg/kg/injection, schedule: Q01DX009 (ip), vehicle: saline 96 % of control

CCC(=O)c1ccc(NC(C)=O)cc1
inactive: [1] 100 % of control | dose: 100.0 mg/kg/injection, schedule: Q04DX003 (ip), vehicle: Klucel (hydroxypropylcellulose) (HPC) 99 % of control | [2] 100 % of control | dose: 200.0 mg/kg/injection, schedule: Q04DX003 (ip), vehicle: Klucel (hydroxypropylcellulose) (HPC) 96 % of control | [3] 103 % of control | dose: 400.0 mg/kg/injection, schedule: Q04DX003 (ip), vehicle: Klucel (hydroxypropylcellulose) (HPC) 96 % of control

CCOC(=O)C(C)NC(=O)C(C)NC(=O)OCc1ccccc1 (centres undefined)
inactive: [4] 101 % of control | [5] 103 % of control | [6] 93 % of control | [7] 101 % of control | [8] 87 % of control | [9] 92 % of control

Nc1nc(N)c(N=O)c(Nc2ccc(I)cc2)n1
inactive: dose: 40.0 mg/kg/injection, schedule: Q01DX Z (ip), vehicle: carboxymethylcellulose (CMC) 102 % of control | dose: 50.0 mg/kg/injection, schedule: Q01DX009 (ip), vehicle: acetone 108 % of control | dose: 50.0 mg/kg/injection, schedule: Q04DX003 (ip), vehicle: carboxymethylcellulose (CMC) 109 % of control | dose: 60.0 mg/kg/injection, schedule: Q01DX Z (ip), vehicle: carboxymethylcellulose (CMC) 104 % of control | dose: 90.0 mg/kg/injection, schedule: Q01DX Z (ip), vehicle: carboxymethylcellulose (CMC) 88 % of control | [10] 101 % of control | dose: 100.0 mg/kg/injection, schedule: Q01DX009 (ip), vehicle: acetone 106 % of control | [11] 106 % of control | dose: 135.0 mg/kg/injection, schedule: Q01DX Z (ip), vehicle: carboxymethylcellulose (CMC) 89 % of control | [12] 101 % of control | [13] 96 % of control

Cc1cc(C)c(C#N)c(=O)[nH]1
inactive: [1] 97 % of control | [14] 100 % of control | [2] 97 % of control | [15] 92 % of control | [3] 88 % of control | [16] 95 % of control

CC1(C(=O)O)COC(=O)N1 (centres undefined)
inactive: dose: 25.0 mg/kg/injection, schedule: Q04DX002 (ip), vehicle: saline 96 % of control | dose: 50.0 mg/kg/injection, schedule: Q04DX002 (ip), vehicle: saline 104 % of control | dose: 100.0 mg/kg/injection, schedule: Q04DX002 (ip), vehicle: saline 86 % of control

C/C=C/CC1(CCC)C(=O)NC(=O)NC1=O
inactive: dose: 75.0 mg/kg/injection, schedule: Q01DX001 (ip), vehicle: saline 100 % of control | dose: 150.0 mg/kg/injection, schedule: Q01DX001 (ip), vehicle: saline 98 % of control | dose: 300.0 mg/kg/injection, schedule: Q01DX001 (ip), vehicle: saline 104 % of control

CCCCCCCNC(CC(C)C)C(=O)OCC (centres undefined)
inactive: dose: 25.0 mg/kg/injection, schedule: Q04DX002 (ip), vehicle: Klucel (hydroxypropylcellulose) (HPC) 91 % of control | dose: 50.0 mg/kg/injection, schedule: Q04DX002 (ip), vehicle: Klucel (hydroxypropylcellulose) (HPC) 97 % of control | [14] 94 % of control

CCCCCCC(=O)N(CCC)CCC
inactive: [10] 112 % of control | dose: 100.0 mg/kg/injection, schedule: Q01DX009 (ip), vehicle: carboxymethylcellulose (CMC) 98 % of control and 100 % of control | [11] 97 % of control | [12] 102 % of control | dose: 200.0 mg/kg/injection, schedule: Q01DX009 (ip), vehicle: carboxymethylcellulose (CMC) 97 % of control and 104 % of control | [13] 98 % of control

CC(=O)[O][Sn]([CH2]c1ccccc1)([CH2]c1ccccc1)[CH2]c1ccccc1
inactive: dose: 0.5 mg/kg/injection, schedule: Q04DX003 (ip), vehicle: saline with Tween-80 97 % of control | dose: 1.0 mg/kg/injection, schedule: Q04DX003 (ip), vehicle: saline with Tween-80 96 % of control | dose: 3.0 mg/kg/injection, schedule: Q04DX003 (ip), vehicle: saline with Tween-80 99 % of control | dose: 12.0 mg/kg/injection, schedule: Q01DX009 (ip), vehicle: saline with Tween-80 97 % of control | dose: 25.0 mg/kg/injection, schedule: Q01DX009 (ip), vehicle: saline with Tween-80 100 % of control

O=[N+]([O-])c1ccc(C(Br)C(Br)c2ccccc2Br)cc1 (centres undefined)
inactive: [1] 98 % of control | dose: 100.0 mg/kg/injection, schedule: Q04DX003 (ip), vehicle: saline 96 % of control | [2] 102 % of control | dose: 200.0 mg/kg/injection, schedule: Q04DX003 (ip), vehicle: saline 98 % of control | [3] 98 % of control | dose: 400.0 mg/kg/injection, schedule: Q04DX003 (ip), vehicle: saline 96 % of control

O=C(Nc1ccc(Cl)cc1)Nc1ncccn1
inactive: [14] 96 % of control | [15] 93 % of control | [16] 96 % of control

Oc1ccccc1N=Cc1ccc(C=Nc2ccccc2O)cc1
inactive: [4] 101 % of control | [5] 100 % of control | [6] 97 % of control | [7] 98 % of control | [8] 107 % of control | [9] 94 % of control

CC12CC/C(=N/NC(=O)Cc3c[nH]c4ccccc34)CC1CCC1C2CCC2(C)C(OC(=O)c3ccccc3)CCC12 (centres undefined)
inactive: dose: 100.0 mg/kg/injection, schedule: Q01DX001 (sc), vehicle: steriod suspending solution 101 % of control | dose: 100.0 mg/kg/injection, schedule: Q01DX009 (sc), vehicle: steriod suspending solution 104 % of control | dose: 200.0 mg/kg/injection, schedule: Q01DX001 (sc), vehicle: steriod suspending solution 100 % of control | dose: 200.0 mg/kg/injection, schedule: Q01DX009 (sc), vehicle: steriod suspending solution 104 % of control | dose: 400.0 mg/kg/injection, schedule: Q01DX001 (sc), vehicle: steriod suspending solution 111 % of control | dose: 400.0 mg/kg/injection, schedule: Q01DX009 (sc), vehicle: steriod suspending solution 102 % of control

c1ccc(P(N2CCOCC2)N2CCOCC2)cc1
inactive: dose: 100.0 mg/kg/injection, schedule: Q04DX002 (ip), vehicle: saline with Tween-80 93 % of control | dose: 200.0 mg/kg/injection, schedule: Q04DX002 (ip), vehicle: saline with Tween-80 97 % of control | dose: 400.0 mg/kg/injection, schedule: Q04DX002 (ip), vehicle: saline with Tween-80 97 % of control

COC(=O)C(Cc1[nH]c(N=Nc2ccc(Br)cc2)nc1N=Nc1ccc(Br)cc1)NC(=O)c1ccccc1 (centres undefined)
inactive: dose: 100.0 mg/kg/injection, schedule: Q01DX001 (ip), vehicle: saline with Tween-80 86 % of control | dose: 200.0 mg/kg/injection, schedule: Q01DX001 (ip), vehicle: saline with Tween-80 93 % of control | dose: 400.0 mg/kg/injection, schedule: Q01DX001 (ip), vehicle: saline with Tween-80 90 % of control

Reference: PubChem BioAssay AID248 (DTP/NCI, 2004)
